# Like-named read-outs stand apart in the source and are kept apart here.
# What was measured:
# Assay type in all cases: cell-based
# [1] = tested on: BaF3/ITD cells; experiment: MTT growth inhibition assay, BaF3 FLT3-ITD cells; conditions: Mus musculus, no IL-3, 48 h, read-out: Proliferation IC50
# Method: (§1) Figure 1 Growth of AL mutants in the presence of FLT3 TKI The BaF3 AL mutants were grown in the absence of IL-3 and analyzed by treatment in increasing concentrations of FLT3 TKI for 48 hours, after which growth inhibition was assessed using the MTT assay. Means are representative of at least three independent experiments.
# (§2) The cells were grown in the absence of IL3 and analyzed by treatment in increasing concentrations of FLT3 TKI for 48 hours, after which growth inhibition was assessed using the MTT assay. Each experiment was performed at least three times and representative results are shown.
# (§3) Based on Trypan Blue exclusion, 2 × 10^4 viable cells were seeded in quadruplicate in a 96-well microtiter plate in the presence or absence of inhibitor for 48 h. The effect of drug activity on cell viability was measured using the 3-(4,5-Dimethylthiazol-2-yl)-2,5-diphenyltetrazolium bromide (MTT) assay according to the manufacturer's instructions (Roche Applied Science, Indianapolis, IN, USA). Following treatment, cells were incubated for 4 h in MTT followed by dissolution in solubilization buffer overnight. Absorbance was measured at 570 nm on a Bio-Rad plate reader (Hercules, CA, USA). […] Results shown are presented as means and are representative of at least three independent experiments.
# [2] = tested on: BaF3 FLT3 D835Y mutant cells; experiment: MTT growth inhibition assay, BaF3 FLT3 D835Y cells; conditions: Mus musculus, no IL-3, 48 h, read-out: Proliferation IC50
# Method: as §1, §2, §3
# [3] = tested on: BaF3 FLT3 D835A mutant cells; experiment: MTT growth inhibition assay, BaF3 FLT3 D835A cells; conditions: Mus musculus, read-out: Proliferation IC50
# Method: as §1, §2, §3
# [4] = tested on: BaF3 FLT3 D835G mutant cells; experiment: MTT growth inhibition assay, BaF3 FLT3 D835G cells; conditions: Mus musculus, no IL-3, 48 h, read-out: Proliferation IC50
# Method: as §1, §2, §3
# [5] = tested on: BaF3 FLT3 D835N mutant cells; experiment: MTT growth inhibition assay, BaF3 FLT3 D835N cells; conditions: Mus musculus, no IL-3, 48 h, read-out: Proliferation IC50
# Method: as §1, §2, §3
# [6] = tested on: BaF3 FLT3 D835L+K mutant cells; experiment: MTT growth inhibition assay, BaF3 FLT3 D835L+K cells; conditions: Mus musculus, no IL-3, 48 h, read-out: Proliferation IC50
# Method: as §1, §2, §3
# [7] = tested on: BaF3 FLT3 I836L+D mutant cells; experiment: MTT growth inhibition assay, BaF3 FLT3 I836L+D cells; conditions: Mus musculus, no IL-3, 48 h, read-out: Proliferation IC50
# Method: as §1, §2, §3
# [8] = tested on: BaF3 FLT3 I836S mutant cells; experiment: MTT growth inhibition assay, BaF3 FLT3 I836S cells; conditions: Mus musculus, read-out: Proliferation IC50
# Method: as §1, §2, §3
# [9] = tested on: BaF3 FLT3 I836T mutant cells; experiment: MTT growth inhibition assay, BaF3 FLT3 I836T cells; conditions: Mus musculus, no IL-3, 48 h, read-out: Proliferation IC50
# Method: as §1, §2, §3
# [10] = tested on: BaF3 FLT3 840G+S mutant cells; experiment: MTT growth inhibition assay, BaF3 FLT3 840G+S cells; conditions: Mus musculus, no IL-3, 48 h, read-out: Proliferation IC50
# Method: as §1, §2, §3
# [11] = tested on: BaF3 FLT3 D593D mutant cells; experiment: MTT growth inhibition assay, BaF3 FLT3 D593D cells; conditions: Mus musculus, no IL-3, 48 h, read-out: Proliferation IC50
# Method: as §1, §2, §3
# [12] = tested on: FLT3 D835L+K; experiment: FLT3 autophosphorylation, immunoprecipitation/Western blot, D835L+K; conditions: D835L+K mutant, concentrations of 200 nM, 1 h
# Method: Activated FLT3 expression was measured by performing immunoprecipitation, SDS-PAGE and Western blotting as previously described. Specifically, 10^7 cells were washed in medium and treated with inhibitor for 1 h followed by stimulation with 25 ng/ml of FLT3 ligand for 15 minutes where indicated. Cells were washed twice with ice-cold PBS and lysed in 300 µl of NP-40 lysis buffer (150 mM NaCl, 20 mM TrisHCl (pH7.4), 10% glycerol, 1% NP-40, 10 mM EDTA, 100 mM NaF) with 2 mM Na3VO4 and protease inhibitors (Complete Tablets, Roche, Mannheim, Germany) at 4°C for 30 m. Cell lysate was harvested by centrifugation at 13,000 × g for 30 m at 4°C. FLT3 S-18 antibody was incubated with 500 µg lysate overnight at 4°C followed by immunoprecipitation with protein A-agarose beads for 2 h. Beads were washed once in Tris buffered saline with 1% Tween-20 (TBST) and twice in TBS. Samples were boiled in sodium dodecyl sulfate (SDS) sample buffer prior to separating in a 8% SDS-polyacrylamide gel (SDS-PAGE). Proteins were transferred to a polyvinyl diflouride (PVDF) membrane (Millipore, Bedford, MA, USA) and detected by 4G10 phosphotyrosine antibody and anti-FLT3 S-18 antibody. FLT3 was visualized using the Odyssey Infra Red Imaging System from Li-Cor (Lincoln, NE, USA) using AlexaFluor 680 goat anti-mouse and AlexaFluor 800 goat anti-rabbit antibodies. […]
# [13] = BaF3 FLT3 D835A, no IL-3, 48 h, MTT
# [14] = BaF3 FLT3 I836S, no IL-3, 48 h, MTT
IC50 [1] [nM],IC50 [2] [nM],"IC50 [3, 13] [nM]",IC50 [4] [nM],IC50 [5] [nM],IC50 [6] [nM],IC50 [7] [nM],"IC50 [8, 14] [nM]",IC50 [9] [nM],IC50 [10] [nM],IC50 [11] [nM],SMILES,Inhibition of FLT3 phosphorylation [12],"IC50 ([3]; BaF3, 48 h) [nM]","IC50 ([8]; BaF3, 48 h) [nM]"
298,> 3000,1970,423,411,> 3000,> 3000,> 3000,> 3000,500,> 3000,Cc1cc2ncc(-c3ccccc3)nc2cc1C [AG1295],,,
57,58,78.1,110,80,> 1000,50,> 1000,> 1000,83,70,CC1(COc2ccc3c(c2)ncn3-c2ccc3cccc(N4CCC(N)CC4)c3n2)COC1 [Crenolanib],significant autophosphorylation still observable,,

SMILES,IC50 [1] [nM],IC50 [2] [nM],"IC50 [3, 13] [nM]",IC50 [4] [nM],IC50 [5] [nM],IC50 [6] [nM],IC50 [7] [nM],"IC50 [8, 14] [nM]",IC50 [9] [nM],IC50 [10] [nM],IC50 [11] [nM],Inhibition of FLT3 phosphorylation [12],"IC50 ([3]; BaF3, 48 h) [nM]","IC50 ([8]; BaF3, 48 h) [nM]"
Cc1ccc(C(=O)Nc2ccc(CN3CCN(C)CC3)c(C(F)(F)F)c2)cc1C#Cc1cnc2cccnn12 [Ponatinib],< 1,92,,< 1,< 1,> 1000,< 1,,> 1000,< 1,10.7,significant autophosphorylation still observable,148,> 1000
